# In patent publication US20240317827A1, “LINEAR PEPTIDES INHIBITING CK2-MEDIATED PHOSPHORYLATION AND COMPOSITIONS COMPRISING SAME” (CENTRO DE INGENIERÍA GENÉTICA Y BIOTECNOLOGÍA, priority 2021, published 2024):
# Read-outs that look alike come from different tables or passages of the source. Where a SMILES comes first, the peptide text is derived from it. [ ]: non-standard residue; d: D form. βAla = NCCC(=O)O
# T1: E7 oncoprotein of HPV-16 expressed in Escherichia coli as a fusion protein to Glutathione S-Transferase (Human Papillomavirus (HPV)-16, UniProt P03129 1-98)
# T1 sequence: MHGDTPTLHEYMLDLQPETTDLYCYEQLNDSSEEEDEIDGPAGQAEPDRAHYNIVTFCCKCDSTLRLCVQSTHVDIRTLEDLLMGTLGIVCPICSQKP
# B1: peptide D14P165 (RKRSRYWP) (peptide)
# peptide: RKRSRYWP
# B2: peptide D15P105 (RKRWRYWP) (peptide)
# peptide: RKRWRYWP
# B3: peptide D15P106 (RKRSWYWP) (peptide)
# peptide: RKRSWYWP
# Legend:
# [1] = biological target: T2, CK2-mediated phosphorylation of the HPV-16 E7 oncoprotein (Human papillomavirus type 16, UniProt P03129); experiment: in vitro phosphorylation reaction, E7 oncoprotein (GST fusion) as substrate; assay type: biochemical; conditions: procedure of Example 2
# T2 construct: Glutathione S-Transferase (GST); made in house; host or cells: Escherichia coli
# Protocol: The assay to measure the effect of these peptides on the CK2-mediated phosphorylation of the HPV-16 E7 oncoprotein, was based on an in vitro phosphorylation reaction, where the E7 oncoprotein of HPV-16 expressed in Escherichia coli was used as substratum. This oncoprotein was obtained as a fusion protein to Glutathione S-Transferase. The assay was performed according to the procedure previously described. (Perea S. E., et al., 2004, Cancer Res., 64: 7127-7129). The results are shown in FIG. 1, and indicate that the peptides identified as SEQ ID NO: 1-SEQ ID NO: 9 are capable of inhibiting CK2-mediated phosphorylation of the E7 protein of HPV-16.
# [2] = test system: NCI-H125 cell line (non-small cell lung cancer); experiment: cell proliferation assay, NCI-H125 line; assay type: cell-based
# Protocol: The evaluation of the antiproliferative activity of polypeptides F11P13-F11P21 (SEQ ID NO: 12-SEQ ID NO: 20) was performed on the NCI-H125 cell line. […] The antiproliferative effect of the CIGB-300 peptide has been widely characterized in this line (Cirigliano S. M., et al., 2017, Cancer Cell International, 17, 42), therefore, it was selected as a positive control. Tat peptide was used as a negative control. The polypeptides were evaluated at the concentrations of 25, 50, 100 and 200 μM. The cell proliferation assay was performed by a previously described procedure (Perera Y., et al., 2012, J. Pept. Sci, 18 (4):215-23).
# The 24 polypeptides identified as SEQ ID NO: 21-SEQ ID NO: 44 maintained the ability to inhibit the phosphorylation of the E7 protein of HPV-16, mediated by CK2, since phosphorylation inhibition values between 60-85% were obtained. […] Evaluation of the antiproliferative activity of synthetic polypeptides generated by positional scanning of Trp (SEQ ID NO: 21-SEQ ID NO: 44) was performed on the NCI-H125 cell line. The test was performed by the procedure previously described. (Perera Y., et al., 2012, J. Pept. Sci, 18 (4): 215-23). Precursor polypeptides (F11P19, F11P20, F11P21) and peptide CIGB-300 were included as positive controls. The polypeptides were evaluated at the concentrations of 12.5; 25; fifty; 100 and 200 μM.
# The evaluation of the antiproliferative activity of synthetic polypeptides A15P35, A15P36 and A15P37 (SEQ ID NO: 46-SEQ ID NO: 48) was performed on the NCI-H125, AsPC-1, PanC-1 (pancreatic carcinoma) and OCI-AML3 (acute myeloid leukemia-3) cell lines. The test was carried out according to the procedure previously described (Perera Y, et al., 2012, J. Pept. Sci, 18 (4):215-23). […] The polypeptides A15P35, A15P36 and A15P37 were able to produce a dose-dependent effect on the proliferation of NCI-H125 cells.
# Antiproliferative assays were performed on the NCI-H125, Hep2C (laryngeal carcinoma) cell lines, and on two bladder cancer lines (MGH-U3 and MGH-U4). The test was carried out according to the procedure previously described (Perera Y., et al, 2012, Pept. Sci, 18 (4):215-23).
# [3] = biological target: T1, E7 oncoprotein of HPV-16 expressed in …; experiment: cell-based or functional assay
# [4] = NCI-H125, Table 5, read-out: IC50
# [5] = NCI-H125, read-out: IC50 (dose-effect curves)
molecule,measurement,setting,value
RKRSRYWP [D14P165],phosphorylation inhibition,[1],85%
"N=C(N)NCCC[C@H](NC(=O)CN)C(=O)N[C@@H](CCCCN)C(=O)N[C@@H](CCCCN)C(=O)N[C@@H](CCCNC(=N)N)C(=O)N[C@@H](CCCNC(=N)N)C(=O)N[C@@H](CCC(N)=O)C(=O)N[C@@H](CCCNC(=N)N)C(=O)N[C@@H](CCCNC(=N)N)C(=O)N[C@@H](CCCNC(=N)N)C(=O)N1CCC[C@H]1C(=O)N1CCC[C@H]1C(=O)N[C@@H](CCC(N)=O)C(=O)NCCC(=O)N[C@@H](Cc1c[nH]c2ccccc12)C(=O)N[C@@H](Cc1ccc(O)cc1)C(=O)N[C@@H](CCCNC(=N)N)C(=O)N[C@@H](Cc1ccc(O)cc1)C(=O)N[C@@H](CCCCN)C(=O)N[C@@H](CCCNC(=N)N)C(=O)N[C@@H](CC(=O)O)C(=O)N1CCC[C@H]1C(N)=O [A14P27, GRKKRRQRRRPPQ-βA-WYRYKRDP] (H-GRKKRRQRRRPPQ[βAla]WYRYKRDP-NH2; N-terminus and C-terminus assumed)",IC50,[2]; [4],165 µM
RKRWRYWP [D15P105],phosphorylation inhibition,[1],87%
"N=C(N)NCCC[C@H](NC(=O)CN)C(=O)N[C@@H](CCCCN)C(=O)N[C@@H](CCCCN)C(=O)N[C@@H](CCCNC(=N)N)C(=O)N[C@@H](CCCNC(=N)N)C(=O)N[C@@H](CCC(N)=O)C(=O)N[C@@H](CCCNC(=N)N)C(=O)N[C@@H](CCCNC(=N)N)C(=O)N[C@@H](CCCNC(=N)N)C(=O)N1CCC[C@H]1C(=O)N1CCC[C@H]1C(=O)N[C@@H](CCC(N)=O)C(=O)NCCC(=O)NCC(=O)N[C@@H](Cc1ccc(O)cc1)C(=O)N[C@@H](CCCNC(=N)N)C(=O)N[C@@H](Cc1ccc(O)cc1)C(=O)N[C@@H](CCCCN)C(=O)N[C@@H](CCCNC(=N)N)C(=O)N[C@@H](Cc1c[nH]c2ccccc12)C(=O)N1CCC[C@H]1C(N)=O [A14P33, GRKKRRQRRRPPQ-βA-GYRYKRWP] (H-GRKKRRQRRRPPQ[βAla]GYRYKRWP-NH2; N-terminus and C-terminus assumed)",IC50,[2]; [4],124 µM
"N=C(N)NCCC[C@H](NC(=O)CN)C(=O)N[C@@H](CCCCN)C(=O)N[C@@H](CCCCN)C(=O)N[C@@H](CCCNC(=N)N)C(=O)N[C@@H](CCCNC(=N)N)C(=O)N[C@@H](CCC(N)=O)C(=O)N[C@@H](CCCNC(=N)N)C(=O)N[C@@H](CCCNC(=N)N)C(=O)N[C@@H](CCCNC(=N)N)C(=O)N1CCC[C@H]1C(=O)N1CCC[C@H]1C(=O)N[C@@H](CCC(N)=O)C(=O)NCCC(=O)N[C@@H](CCCNC(=N)N)C(=O)N[C@@H](CCCCN)C(=O)N[C@@H](CCCNC(=N)N)C(=O)N[C@@H](Cc1c[nH]c2ccccc12)C(=O)N[C@@H](CCCNC(=N)N)C(=O)N[C@@H](Cc1ccc(O)cc1)C(=O)N[C@@H](CC(=O)O)C(=O)N1CCC[C@H]1C(N)=O [A14P43, GRKKRRQRRRPPQ-βA-RKRWRYDP] (H-GRKKRRQRRRPPQ[βAla]RKRWRYDP-NH2; N-terminus and C-terminus assumed)",IC50,[2]; [4],107 µM
"N=C(N)NCCC[C@H](NC(=O)CN)C(=O)N[C@@H](CCCCN)C(=O)N[C@@H](CCCCN)C(=O)N[C@@H](CCCNC(=N)N)C(=O)N[C@@H](CCCNC(=N)N)C(=O)N[C@@H](CCC(N)=O)C(=O)N[C@@H](CCCNC(=N)N)C(=O)N[C@@H](CCCNC(=N)N)C(=O)N[C@@H](CCCNC(=N)N)C(=O)N1CCC[C@H]1C(=O)N1CCC[C@H]1C(=O)N[C@@H](CCC(N)=O)C(=O)NCCC(=O)NCC(=O)N[C@@H](Cc1ccc(O)cc1)C(=O)N[C@@H](CCCNC(=N)N)C(=O)N[C@@H](Cc1ccc(O)cc1)C(=O)N[C@@H](CCCCN)C(=O)N[C@@H](CCCNC(=N)N)C(=O)N[C@@H](CC(=O)O)C(=O)N1CCC[C@H]1C(N)=O [F11P20, GRKKRRQRRRPPQ-βA-GYRYKRDP] (H-GRKKRRQRRRPPQ[βAla]GYRYKRDP-NH2; N-terminus and C-terminus assumed)",IC50,[2]; [5],305 µM
"CC(C)C[C@H](NC(=O)[C@H](CCCNC(=N)N)NC(=O)[C@H](CCCNC(=N)N)NC(=O)[C@H](CCCCN)NC(=O)[C@H](CCCCN)NC(=O)[C@@H](NC(=O)CCNC(=O)[C@H](CCC(N)=O)NC(=O)[C@@H]1CCCN1C(=O)[C@@H]1CCCN1C(=O)[C@H](CCCNC(=N)N)NC(=O)[C@H](CCCNC(=N)N)NC(=O)[C@H](CCCNC(=N)N)NC(=O)[C@H](CCC(N)=O)NC(=O)[C@H](CCCNC(=N)N)NC(=O)[C@H](CCCNC(=N)N)NC(=O)[C@H](CCCCN)NC(=O)[C@H](CCCCN)NC(=O)[C@H](CCCNC(=N)N)NC(=O)CN)C(C)C)C(=O)N[C@@H](Cc1c[nH]c2ccccc12)C(=O)N1CCC[C@H]1C(N)=O [A14P59, GRKKRRQRRRPPQ-βA-VKKRRLWP] (H-GRKKRRQRRRPPQ[βAla]VKKRRLWP-NH2; N-terminus and C-terminus assumed)",IC50,[2]; [4],140 µM
"N=C(N)NCCC[C@H](NC(=O)CN)C(=O)N[C@@H](CCCCN)C(=O)N[C@@H](CCCCN)C(=O)N[C@@H](CCCNC(=N)N)C(=O)N[C@@H](CCCNC(=N)N)C(=O)N[C@@H](CCC(N)=O)C(=O)N[C@@H](CCCNC(=N)N)C(=O)N[C@@H](CCCNC(=N)N)C(=O)N[C@@H](CCCNC(=N)N)C(=O)N1CCC[C@H]1C(=O)N1CCC[C@H]1C(=O)N[C@@H](CCC(N)=O)C(=O)NCCC(=O)N[C@@H](CCCNC(=N)N)C(=O)N[C@@H](CCCCN)C(=O)N[C@@H](CCCNC(=N)N)C(=O)N[C@@H](CO)C(=O)N[C@@H](CCCNC(=N)N)C(=O)N[C@@H](Cc1ccc(O)cc1)C(=O)N[C@@H](CC(=O)O)C(=O)N1CCC[C@H]1C(N)=O [F11P19, GRKKRRQRRRPPQ-βA-RKRSRYDP] (H-GRKKRRQRRRPPQ[βAla]RKRSRYDP-NH2; N-terminus and C-terminus assumed)",IC50,[2]; [5],336 µM
"CC(C)C[C@H](NC(=O)[C@H](CCCNC(=N)N)NC(=O)[C@H](CCCNC(=N)N)NC(=O)[C@H](CCCCN)NC(=O)[C@H](CCCCN)NC(=O)[C@@H](NC(=O)CCNC(=O)[C@H](CCC(N)=O)NC(=O)[C@@H]1CCCN1C(=O)[C@@H]1CCCN1C(=O)[C@H](CCCNC(=N)N)NC(=O)[C@H](CCCNC(=N)N)NC(=O)[C@H](CCCNC(=N)N)NC(=O)[C@H](CCC(N)=O)NC(=O)[C@H](CCCNC(=N)N)NC(=O)[C@H](CCCNC(=N)N)NC(=O)[C@H](CCCCN)NC(=O)[C@H](CCCCN)NC(=O)[C@H](CCCNC(=N)N)NC(=O)CN)C(C)C)C(=O)N[C@@H](CC(=O)O)C(=O)N1CCC[C@H]1C(N)=O [F11P21, GRKKRRQRRRPPQ-βA-VKKRRLDP] (H-GRKKRRQRRRPPQ[βAla]VKKRRLDP-NH2; N-terminus and C-terminus assumed)",IC50,[2]; [5],668 µM
RKRSWYWP [D15P106],phosphorylation inhibition,[1],82%
"N=C(N)NCCC[C@H](NC(=O)CN)C(=O)N[C@@H](CCCCN)C(=O)N[C@@H](CCCCN)C(=O)N[C@@H](CCCNC(=N)N)C(=O)N[C@@H](CCCNC(=N)N)C(=O)N[C@@H](CCC(N)=O)C(=O)N[C@@H](CCCNC(=N)N)C(=O)N[C@@H](CCCNC(=N)N)C(=O)N[C@@H](CCCNC(=N)N)C(=O)N1CCC[C@H]1C(=O)N1CCC[C@H]1C(=O)N[C@@H](CCC(N)=O)C(=O)NCCC(=O)NCC(=O)N[C@@H](Cc1ccc(O)cc1)C(=O)N[C@@H](CCCNC(=N)N)C(=O)N[C@@H](Cc1ccc(O)cc1)C(=O)N[C@@H](Cc1c[nH]c2ccccc12)C(=O)N[C@@H](CCCNC(=N)N)C(=O)N[C@@H](CC(=O)O)C(=O)N1CCC[C@H]1C(N)=O [A14P31, GRKKRRQRRRPPQ-βA-GYRYWRDP] (H-GRKKRRQRRRPPQ[βAla]GYRYWRDP-NH2; N-terminus and C-terminus assumed)",IC50,[2]; [4],135 µM
B1,"inhibition of CK2-mediated phosphorylation of HPV-16 E7 (in vitro phosphorylation reaction, GST-E7 substrate)",[3],85%
B2,"inhibition of CK2-mediated phosphorylation of HPV-16 E7 (in vitro phosphorylation reaction, GST-E7 substrate)",[3],87%
B3,"inhibition of CK2-mediated phosphorylation of HPV-16 E7 (in vitro phosphorylation reaction, GST-E7 substrate)",[3],82%
